In BigSolDB 2.1:

Structure (SMILES): Nc1cc(-c2ccncc2)c[nH]c1=O
- solubility (mole fraction) (in DMF, 278.15 K): 7.24e-05
- solubility (mole fraction) (in DMF, 283.15 K): 8.63e-05
- solubility (mole fraction) (in DMF, 288.15 K): 0.000102
- solubility (mole fraction) (in DMF, 293.15 K): 0.000118
- solubility (mole fraction) (in DMF, 298.15 K): 0.000135
- solubility (mole fraction) (in DMF, 303.15 K): 0.000154
- solubility (mole fraction) (in DMF, 308.15 K): 0.000177
- solubility (mole fraction) (in DMF, 313.15 K): 0.000203
- solubility (mole fraction) (in DMF, 318.15 K): 0.000229
- solubility (mole fraction) (in DMF, 323.15 K): 0.00026
- solubility (mole fraction) (in ethanol, 278.15 K): 2.65e-05
- solubility (mole fraction) (in ethanol, 283.15 K): 3.18e-05
- solubility (mole fraction) (in ethanol, 288.15 K): 3.71e-05
- solubility (mole fraction) (in ethanol, 293.15 K): 4.41e-05
- solubility (mole fraction) (in ethanol, 298.15 K): 5.07e-05
- solubility (mole fraction) (in ethanol, 303.15 K): 5.84e-05
- solubility (mole fraction) (in ethanol, 308.15 K): 6.7e-05
- solubility (mole fraction) (in ethanol, 313.15 K): 7.54e-05
- solubility (mole fraction) (in ethanol, 318.15 K): 8.47e-05
- solubility (mole fraction) (in ethanol, 323.15 K): 9.67e-05
- solubility (mole fraction) (in ethylene glycol, 278.15 K): 1.95e-05
- solubility (mole fraction) (in ethylene glycol, 283.15 K): 2.33e-05
- solubility (mole fraction) (in ethylene glycol, 288.15 K): 2.74e-05
- solubility (mole fraction) (in ethylene glycol, 293.15 K): 3.26e-05
- solubility (mole fraction) (in ethylene glycol, 298.15 K): 3.83e-05
- solubility (mole fraction) (in ethylene glycol, 303.15 K): 4.35e-05
- solubility (mole fraction) (in ethylene glycol, 308.15 K): 4.95e-05
- solubility (mole fraction) (in ethylene glycol, 313.15 K): 5.62e-05
- solubility (mole fraction) (in ethylene glycol, 318.15 K): 6.36e-05
- solubility (mole fraction) (in ethylene glycol, 323.15 K): 7.18e-05
- solubility (mole fraction) (in methanol, 278.15 K): 5.18e-05
- solubility (mole fraction) (in methanol, 283.15 K): 6.11e-05
- solubility (mole fraction) (in methanol, 288.15 K): 7.22e-05
- solubility (mole fraction) (in methanol, 293.15 K): 8.44e-05
- solubility (mole fraction) (in methanol, 298.15 K): 9.72e-05
- solubility (mole fraction) (in methanol, 303.15 K): 0.000111
- solubility (mole fraction) (in methanol, 308.15 K): 0.000126
- solubility (mole fraction) (in methanol, 313.15 K): 0.000141
- solubility (mole fraction) (in methanol, 318.15 K): 0.00016
- solubility (mole fraction) (in methanol, 323.15 K): 0.00018
- solubility (mole fraction) (in water, 278.15 K): 6.85e-07
- solubility (mole fraction) (in water, 283.15 K): 8.07e-07
- solubility (mole fraction) (in water, 288.15 K): 9.66e-07
- solubility (mole fraction) (in water, 293.15 K): 1.13e-06
- solubility (mole fraction) (in water, 298.15 K): 1.33e-06
- solubility (mole fraction) (in water, 303.15 K): 1.53e-06
- solubility (mole fraction) (in water, 308.15 K): 1.77e-06
- solubility (mole fraction) (in water, 313.15 K): 2.02e-06
- solubility (mole fraction) (in water, 318.15 K): 2.3e-06
- solubility (mole fraction) (in water, 323.15 K): 2.63e-06
